Test results published in article PMC3064985 (Bioorganic & medicinal chemistry, 2010).

Experiments:
[1] = system: Poly d(A-T)n; assay: Thermal melting; format: binding; conditions: for Increase in ΔTm on replacing one furan ring with thiophene: compared with bifuran 1c
[2] = system: cultured L6 rat myoblast cells; assay: Cytotoxicity, Alamar Blue assay; format: cell-based; conditions: read-out: Cytotoxicity IC50
[3] = system: Plasmodium falciparum K1; assay: In vitro activity against P. falciparum; format: cell-based; conditions: read-out: P. falciparum IC50; strain K1; average of duplicate determination
[4] = system: T. b. rhodesiense STIB900; assay: STIB900 acute mouse model of trypanosomiasis; format: in vivo; conditions: 5 mg/kg ip, 4 consecutive days

6-(5′-Amidino-2,2′-bifuran-5-yl)-nicotinamidine acetate [Compound 1h]
ΔTm, increase in thermal melting of Poly d(A-T)n ([1]; ratio 0.3 mol compound per mole DNA, CAC 10 buffer pH 7.0): 6.0 °C | IC50 [2]: 26.9 µM | IC50 [3]: 0.0064 µM | Survival (average days of survival) [4]: 25.5 days | Cures (mice that survive and are parasite free for 60 days) ([4]; groups of four mice): 0/4

Cl.N=C(N)c1ccc(-c2ccc(-c3ccc(C(=N)N)s3)o2)cc1 [Compound 1d, 5-[5-(4-Amidinophenyl)-furan-2-yl]-thiophene-2-carboxamidine hydrochloride]
Increase in ΔTm on replacing one furan ring with thiophene [1]: approximately 5 °C

Cl.N=C(N)c1ccc(-c2ccc(-c3ccc(C(=N)N)s3)s2)cc1 [Compound 1e, 5′-(4-Amidinophenyl)-2,2′-bithiophene-5-carboxamidine hydrochloride]
Survival (average days of survival) [4]: 26.25 days

Cl.N=C(N)c1ccc(-c2ccc(-c3ccc(C(=N)N)o3)s2)cc1 [Compound 1f, 5-[5-(4-Amidinophenyl)-thiophen-2-yl]-furan-2-carboxamidine hydrochloride]
Increase in ΔTm on replacing one furan ring with thiophene [1]: approximately 5 °C
